Measurements taken from patent US20230085307A1, “PYRIDAZINONE COMPOUND AND HERBICIDE” (NISSAN CHEMICAL CORPORATION, priority 2019, published 2023).

Each compound was assayed on Japanese bulrush (assay: Test Example 2: herbicidal activity, application during weed generation under submerged conditions (Table 17, symbol B)). Details: AAH 320 g/ha; application during weed generation, submerged conditions.
Assay type: in vivo, Japanese bulrush (Schoenoplectus juncoides)
How it was run: (§1)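 Alluvial soil in Wagner pots was flooded to 4 cm depth and sown with the three weeds together; pots were kept in a greenhouse at 25° C. to 30° C. At the one to two leaf stage, an emulsion formulation diluted in water to a set rate went onto the water surface; scored three weeks later.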

SMILES	herbicidal effect rating, B: Japanese bulrush
C=C(C)CCOc1ccc(-c2sc3ccccc3c2-c2c(O)c(C)nn(C)c2=O)cc1 [1-210]	3 (Herbicidal rate of 40% or more and less than 70%)
Cc1nn(C)c(=O)c(-c2c(-c3ccc(OCCOC(C)C)cc3)sc3ccccc23)c1O [1-226]	3 (Herbicidal rate of 40% or more and less than 70%)
CCCC(=O)Oc1c(C)nn(C)c(=O)c1-c1c(-c2ccc(C(F)(F)F)cc2Cl)sc2ccc(F)cc12 [2-357]	0 (Herbicidal rate of 5% or less (almost no effect))

Same assay, conditions: application during weed generation under submerged conditions; amount of applied herbicide 320 g/ha

SMILES	herbicidal effect grade, B: Japanese bulrush
CCCC(=O)Oc1c(C)nn(C)c(=O)c1-c1c(-c2ccc(OCCOC)cc2)oc2ccc(C)cc12 [9-064]	3 (Herbicidal rate of 40% or more and less than 70%)

These compounds were tested on barnyard grass (assay: Test Example 3: herbicidal effect by foliage application, Wagner pot (Table 18, symbol H)). Details: 320 g/ha.
Assay type: in vivo, barnyard grass (Echinochloa crus-galli)
How it was run: (§2)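 Plants were sown in alluvial soil held under 0.1–0.5 cm standing water and grown 14 days in a greenhouse at 25–30 °C. An emulsifiable formulation, water-diluted to the set dose, was then sprayed onto the foliage, and effects were scored three weeks later using previously defined criteria.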

SMILES	herbicidal effect on H (barnyard grass), rating 0-5
C=C(C)CCOc1ccc(-c2sc3ccccc3c2-c2c(O)c(C)nn(C)c2=O)cc1 [1-210]	5 (Herbicidal rate of 90% or more (almost completely withered))
Cc1nn(C)c(=O)c(-c2c(-c3ccc(OCCOC(C)C)cc3)sc3ccccc23)c1O [1-226]	5 (Herbicidal rate of 90% or more (almost completely withered))

Same assay, conditions: amount of applied herbicide 320 g/ha

SMILES	Herbicidal effect on H (barnyard grass), foliage application	herbicidal effect on H: barnyard grass
CCCC(=O)Oc1c(C)nn(C)c(=O)c1-c1c(-c2ccc(OCCOC)cc2)oc2ccc(C)cc12 [9-064]	5 (Herbicidal rate of 90% or more (almost completely withered))	
CCCC(=O)Oc1c(C)nn(C)c(=O)c1-c1c(-c2ccc(C(F)(F)F)cc2Cl)sc2ccc(F)cc12 [2-357]		5 (Herbicidal rate of 90% or more (almost completely withered))

These compounds were tested on oval-leafed pondweed (assay: Test Example 2: herbicidal activity, application during weed generation under submerged conditions (Table 17, symbol C)). Details: AAH 320 g/ha; application during weed generation, submerged conditions.
Assay type: in vivo, oval-leafed pondweed (Monochoria vaginalis)
How it was run: as §1

SMILES	herbicidal effect rating, C: oval-leafed pondweed
C=C(C)CCOc1ccc(-c2sc3ccccc3c2-c2c(O)c(C)nn(C)c2=O)cc1 [1-210]	4 (Herbicidal rate of 70% or more and less than 90%)
Cc1nn(C)c(=O)c(-c2c(-c3ccc(OCCOC(C)C)cc3)sc3ccccc23)c1O [1-226]	3 (Herbicidal rate of 40% or more and less than 70%)
CCCC(=O)Oc1c(C)nn(C)c(=O)c1-c1c(-c2ccc(C(F)(F)F)cc2Cl)sc2ccc(F)cc12 [2-357]	0 (Herbicidal rate of 5% or less (almost no effect))

Same assay, conditions: application during weed generation under submerged conditions; amount of applied herbicide 320 g/ha

SMILES	herbicidal effect grade, C: oval-leafed pondweed
CCCC(=O)Oc1c(C)nn(C)c(=O)c1-c1c(-c2ccc(OCCOC)cc2)oc2ccc(C)cc12 [9-064]	4 (Herbicidal rate of 70% or more and less than 90%)

These compounds were tested on rice flat sedge (assay: Test Example 3: herbicidal effect by foliage application, Wagner pot (Table 18, symbol E)). Details: 320 g/ha.
Assay type: in vivo, rice flat sedge (Cyperus iria)
How it was run: as §2

SMILES	herbicidal effect on E (rice flat sedge), rating 0-5
C=C(C)CCOc1ccc(-c2sc3ccccc3c2-c2c(O)c(C)nn(C)c2=O)cc1 [1-210]	4 (Herbicidal rate of 70% or more and less than 90%)
Cc1nn(C)c(=O)c(-c2c(-c3ccc(OCCOC(C)C)cc3)sc3ccccc23)c1O [1-226]	4 (Herbicidal rate of 70% or more and less than 90%)

Same assay, conditions: amount of applied herbicide 320 g/ha

SMILES	Herbicidal effect on E (rice flat sedge), foliage application	herbicidal effect on E: rice flat sedge
CCCC(=O)Oc1c(C)nn(C)c(=O)c1-c1c(-c2ccc(OCCOC)cc2)oc2ccc(C)cc12 [9-064]	5 (Herbicidal rate of 90% or more (almost completely withered))	
CCCC(=O)Oc1c(C)nn(C)c(=O)c1-c1c(-c2ccc(C(F)(F)F)cc2Cl)sc2ccc(F)cc12 [2-357]		2 (Herbicidal rate of 20% or more and less than 40%)

What follows are compounds tested on late watergrass (assay: Test Example 1: herbicidal activity, application before weed generation under submerged conditions (Table 16, symbol A)). Details: 320 g/ha applied herbicide.
Assay type: in vivo, late watergrass (Echinochloa oryzicola)
How it was run: (§3)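 Alluvial soil was flooded to 4 cm depth, weed seeds were sown mixed and 2.5-leaf rice seedlings were transplanted. On sowing day, the compound's emulsion, diluted in water to a set dose, was applied to the water surface. Plants grew at 25–30 °C and were scored 0–5 after three weeks.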

SMILES	Herbicidal effect on A: late watergrass (grade 0-5)
C=C(C)CCOc1ccc(-c2sc3ccccc3c2-c2c(O)c(C)nn(C)c2=O)cc1 [1-210]	5 (Herbicidal rate of 90% or more (almost completely withered))
Cc1nn(C)c(=O)c(-c2c(-c3ccc(OCCOC(C)C)cc3)sc3ccccc23)c1O [1-226]	5 (Herbicidal rate of 90% or more (almost completely withered))
CCCC(=O)Oc1c(C)nn(C)c(=O)c1-c1c(-c2ccc(C(F)(F)F)cc2Cl)sc2ccc(F)cc12 [2-357]	4 (Herbicidal rate of 70% or more and less than 90%)

Same assay, conditions: amount of applied herbicide 320 g/ha

SMILES	Herbicidal effect, A: late watergrass
CCCC(=O)Oc1c(C)nn(C)c(=O)c1-c1c(-c2ccc(OCCOC)cc2)oc2ccc(C)cc12 [9-064]	5 (Herbicidal rate of 90% or more (almost completely withered))

The compounds below were run on late watergrass (assay: Test Example 2: herbicidal activity, application during weed generation under submerged conditions (Table 17, symbol A)). Details: AAH 320 g/ha; application during weed generation, submerged conditions.
Assay type: in vivo, late watergrass (Echinochloa oryzicola)
How it was run: as §1

SMILES	herbicidal effect rating, A: late watergrass
C=C(C)CCOc1ccc(-c2sc3ccccc3c2-c2c(O)c(C)nn(C)c2=O)cc1 [1-210]	3 (Herbicidal rate of 40% or more and less than 70%)
Cc1nn(C)c(=O)c(-c2c(-c3ccc(OCCOC(C)C)cc3)sc3ccccc23)c1O [1-226]	5 (Herbicidal rate of 90% or more (almost completely withered))
CCCC(=O)Oc1c(C)nn(C)c(=O)c1-c1c(-c2ccc(C(F)(F)F)cc2Cl)sc2ccc(F)cc12 [2-357]	2 (Herbicidal rate of 20% or more and less than 40%)

Same assay, conditions: application during weed generation under submerged conditions; amount of applied herbicide 320 g/ha

SMILES	herbicidal effect grade, A: late watergrass
CCCC(=O)Oc1c(C)nn(C)c(=O)c1-c1c(-c2ccc(OCCOC)cc2)oc2ccc(C)cc12 [9-064]	4 (Herbicidal rate of 70% or more and less than 90%)

These compounds were tested on Chinese sprangletop (assay: Test Example 3: herbicidal effect by foliage application, Wagner pot (Table 18, symbol D)). Details: 320 g/ha.
Assay type: in vivo, chinese sprangletop (Leptochloa chinensis)
How it was run: as §2

SMILES	herbicidal effect on D (Chinese sprangletop), rating 0-5
C=C(C)CCOc1ccc(-c2sc3ccccc3c2-c2c(O)c(C)nn(C)c2=O)cc1 [1-210]	5 (Herbicidal rate of 90% or more (almost completely withered))
Cc1nn(C)c(=O)c(-c2c(-c3ccc(OCCOC(C)C)cc3)sc3ccccc23)c1O [1-226]	5 (Herbicidal rate of 90% or more (almost completely withered))

Same assay, conditions: amount of applied herbicide 320 g/ha

SMILES	Herbicidal effect on D (Chinese sprangletop), foliage application	herbicidal effect on D: Chinese sprangletop
CCCC(=O)Oc1c(C)nn(C)c(=O)c1-c1c(-c2ccc(OCCOC)cc2)oc2ccc(C)cc12 [9-064]	1 (Herbicidal rate of 5% or more and less than 20%)	
CCCC(=O)Oc1c(C)nn(C)c(=O)c1-c1c(-c2ccc(C(F)(F)F)cc2Cl)sc2ccc(F)cc12 [2-357]		3 (Herbicidal rate of 40% or more and less than 70%)

The compounds below were run on oval-leafed pondweed (assay: Test Example 1: herbicidal activity, application before weed generation under submerged conditions (Table 16, symbol C)). Details: 320 g/ha applied herbicide.
Assay type: in vivo, oval-leafed pondweed (Monochoria vaginalis)
How it was run: as §3

SMILES	Herbicidal effect on C: oval-leafed pondweed (grade 0-5)
C=C(C)CCOc1ccc(-c2sc3ccccc3c2-c2c(O)c(C)nn(C)c2=O)cc1 [1-210]	5 (Herbicidal rate of 90% or more (almost completely withered))
Cc1nn(C)c(=O)c(-c2c(-c3ccc(OCCOC(C)C)cc3)sc3ccccc23)c1O [1-226]	4 (Herbicidal rate of 70% or more and less than 90%)
CCCC(=O)Oc1c(C)nn(C)c(=O)c1-c1c(-c2ccc(C(F)(F)F)cc2Cl)sc2ccc(F)cc12 [2-357]	0 (Herbicidal rate of 5% or less (almost no effect))

Same assay, conditions: amount of applied herbicide 320 g/ha

SMILES	Herbicidal effect, C: oval-leafed pondweed
CCCC(=O)Oc1c(C)nn(C)c(=O)c1-c1c(-c2ccc(OCCOC)cc2)oc2ccc(C)cc12 [9-064]	5 (Herbicidal rate of 90% or more (almost completely withered))

Each compound was assayed on Japanese bulrush (assay: Test Example 1: herbicidal activity, application before weed generation under submerged conditions (Table 16, symbol B)). Details: 320 g/ha applied herbicide.
Assay type: in vivo, Japanese bulrush (Schoenoplectus juncoides)
How it was run: as §3

SMILES	Herbicidal effect on B: Japanese bulrush (grade 0-5)
C=C(C)CCOc1ccc(-c2sc3ccccc3c2-c2c(O)c(C)nn(C)c2=O)cc1 [1-210]	5 (Herbicidal rate of 90% or more (almost completely withered))
Cc1nn(C)c(=O)c(-c2c(-c3ccc(OCCOC(C)C)cc3)sc3ccccc23)c1O [1-226]	4 (Herbicidal rate of 70% or more and less than 90%)
CCCC(=O)Oc1c(C)nn(C)c(=O)c1-c1c(-c2ccc(C(F)(F)F)cc2Cl)sc2ccc(F)cc12 [2-357]	2 (Herbicidal rate of 20% or more and less than 40%)

Same assay, conditions: amount of applied herbicide 320 g/ha

SMILES	Herbicidal effect, B: Japanese bulrush
CCCC(=O)Oc1c(C)nn(C)c(=O)c1-c1c(-c2ccc(OCCOC)cc2)oc2ccc(C)cc12 [9-064]	5 (Herbicidal rate of 90% or more (almost completely withered))
